Experiments:
[1] = tested on: whole blood clot formation; assay: Whole blood coagulation assay (clot formation, no exogenous tPA); parameters: species or system human; conditions: 40 µM, 37 °C, fibrinolysis not triggered
Method: (§1) Blood was obtained by venipuncture from healthy donors after they signed an informed consent form. Blood was transferred into vacuum non-anticoagulant Vacutainer® tubes (BD, Franklin Lakes, NJ, USA). Blood samples were immediately used for the assay after extraction.
Prior to blood addition, 20 µL of the evaluated compounds was added to glass tubes, in a final concentration of 40 µM. As a control clot, 20 µL of Tris HCl buffer with no compound was used. Next, 800 µL of blood was transferred to each tube followed by casual shaking to ensure proper mixing. Tubes were incubated at 37 °C for 30 min to allow clot formation and posterior lysis. Blood clotting and lysis were visually monitored and photographs were taken after 30 min.

[2] = target: T1, plasminogen (Homo sapiens, UniProt P00747); assay: Plasminogen activation assay (conversion of plasminogen into plasmin by tPA in the absence of fibrin); assay type: biochemical; conditions: for concentration at which compound increased tPA's activity by 50%: plasminogen-tPA isolated system, absence of fibrin
T1 construct: purchased abcam
Method: The conversion rate of plasminogen to plasmin was assessed using the Tissue-Type Plasminogen Activator Activity Assay Kit (abcam), following the manufacturer’s instructions. The assay measures the ability of tPA to activate plasminogen to plasmin in the presence of the tested compounds using a chromogenic substrate.
A solution of plasminogen and plasmin substrate was mixed with a previously prepared solution of the studied compound and tPA in Tris HCl buffer in a 96-well plate. The final concentration of tPA in each well was 6.8 µg/mL, in a final volume of 100 µL. Absorbance was measured on a microplate reader at a wavelength of 405 nm every minute at 37 °C for 2 h or until the system reached saturation. The absorbance slope of each sample was determined using Equation (3). The Relative Plasminogen Activation (%) for each condition was calculated with Equation (4), using a control without a compound (enzyme control). (4) Relative Plasminogen Activation (%)=SlopeCompound−SlopeControl/SlopeControl×100
Values were fitted to a linear model using MATLAB R2023a (The Math Works Inc., Natick, MA, USA). Concentrations at which each compound was able to increase plasminogen’s conversion by 50% in comparison to the enzyme control were extracted and compared for the three molecules.

[3] = target: T2, tissue-type plasminogen activator (tPA) (Homo sapiens, UniProt P00750); assay: tPA activity assay (chromogenic substrate); assay type: biochemical; conditions: for activity on tPA's active site: at the tested concentrations
T2 construct: purchased abcam
Method: Tris hydrochloride, 1M, pH = 7.5 solution (Thermo Fisher Scientific, Waltham, MA, USA) was used as buffer. […] Recombinant human Tissue Plasminogen Activator (abcam, Cambridge, UK) served as the source of tPA, and was stored at −20 °C until used.
The assay measures the inhibition of tPA’s catalytic domain by the tested compounds employing a chromogenic substrate. Different concentrations of the studied molecules were incubated with tPA in a 96-well plate at 37 °C for 10 min. […] After, 20 μL of tPA’s substrate was added to each well. […] The slope for each assay was obtained from the initial and final absorbance values and their respective time points, or until complete substrate cleavage was achieved. (3) Absorbance slope=Abs2−Abs1/t2−t1
The Relative tPA Inhibition for each condition was calculated using Equation (2). Then, the Relative tPA Activity (%) was calculated by subtracting the relative tPA inhibition of each concentration from the total activity of the enzyme, obtained from a control without a compound.

[4] = tested on: whole blood clots; assay: Whole blood dosage (effective antifibrinolytic dosage, tPA-triggered clot lysis); parameters: species or system human; conditions: 10 µg/mL tPA, 37 °C
Method: as §1
Glass tubes were prepared with 20 µL of a mixture of tPA, in a final concentration of 10 µg/mL, and the evaluated compounds, in a final concentration of 10, 20, 40, or 60 µM in Tris HCl buffer. A control clot was obtained with 20 µL of tPA with no compound. Then, 800 µL of blood was transferred to each tube and tubes were monitored for clot formation and lysis. The assay was performed with casual shaking. […] The ex vivo effective dosage for each compound was determined by their ability to inhibit complete clot degradation. Photographs were taken after 24 h of incubation.

[5] = mostly cardiac surgery patients; ref [21],[29],[36],[37],[38]; cited from earlier work
[6] = ref [28],[29],[35]; cited from earlier work
[7] = target: T3, plasmin (Homo sapiens, UniProt P00747); assay: Plasmin activity assay (Plasmin Inhibitor Screening Assay Kit); assay type: biochemical; conditions: for inhibition at 500 µM: 0.5 mM; for inhibition at 5000 µM: 5 mM; for inhibition at 10000 µM: 10 mM; for inhibition at 15000 µM: 15 mM; for inhibition at 20000 µM: 20 mM; for inhibition at 30000 µM: 30 mM; for increase of IC50 of plasmin's catalytic domain compared to IC50 in plasma clot lysis assay: plasma clot lysis IC50 from Bosch-Sanz et al. [43]
T3 construct: purchased abcam
Method: The potential activity of the studied compounds on the catalytic domain of plasmin was evaluated using the Plasmin Inhibitor Screening Assay Kit (abcam), following the manufacturer’s instructions. Briefly, the assay measures the inhibition of plasmin’s activity by the tested compounds through the cleavage of a fluorogenic peptide substrate. The assay was performed in flat-bottom 96-well plates. Plasmin was pre-incubated with different concentrations of the tested compounds for 10 min at RT prior to the addition of the peptide substrate. Plasmin’s activity was then measured by monitoring the increase in fluorescence intensity over time using a microplate reader (Infinite M Plex, Tecan, Männedorf, Switzerland) at an Ex/Em of 360/450 nm, every minute at 37 °C for 10 min. The slope of each sample was determined using the initial and final fluorescence values and their respective time points. (1) Fluorescence slope=RFU2−RFU1/t2−t1
The Relative Plasmin Inhibition was calculated according to the manufacturer’s instructions using a control slope with no compound (enzyme control):(2) Relative Plasmin Inhibition%=SlopeControl−SlopeCompound/SlopeControl×100

[8] = tested on: whole blood clots; assay: Whole blood clot lysis assay (D-dimer ELISA); parameters: species or system human; conditions: 20 µM, 10 µg/mL tPA
Method: as §1
The quantification of D-dimer released during clot lysis was performed using the human D-dimer ELISA kit (Thermo Fisher Scientific). Directly after extraction, 500 µL of blood was transferred to four different glass tubes and allowed to clot for 10 min at 37 °C. Tubes were incubated at 37 °C for an additional 1 h to enable clot retraction from the walls of the glass tubes [53]. Then, 100 µL of a mixture of tPA and the studied compounds was added on top of each clot. […] As a control clot, 100 µL of tPA without compound in Tris HCl buffer was added. Tubes were incubated at 37 °C and, at time points of 5 min, 2, 4, 7, and 24 h, samples of each tube were extracted for D-dimer quantification. After gentle shaking of the tubes, 5 µL of the supernatant from each tube was pipetted into Eppendorf tubes and stored at −20 °C until assayed. The ELISA assay was performed as described by the manufacturer’s instructions and absorbance was read in a microplate reader at the wavelengths of 450 nm and 550 nm. […]

[9] = read-out: percentage of plasmin's inhibition

T2 sequence (P00750 36-562): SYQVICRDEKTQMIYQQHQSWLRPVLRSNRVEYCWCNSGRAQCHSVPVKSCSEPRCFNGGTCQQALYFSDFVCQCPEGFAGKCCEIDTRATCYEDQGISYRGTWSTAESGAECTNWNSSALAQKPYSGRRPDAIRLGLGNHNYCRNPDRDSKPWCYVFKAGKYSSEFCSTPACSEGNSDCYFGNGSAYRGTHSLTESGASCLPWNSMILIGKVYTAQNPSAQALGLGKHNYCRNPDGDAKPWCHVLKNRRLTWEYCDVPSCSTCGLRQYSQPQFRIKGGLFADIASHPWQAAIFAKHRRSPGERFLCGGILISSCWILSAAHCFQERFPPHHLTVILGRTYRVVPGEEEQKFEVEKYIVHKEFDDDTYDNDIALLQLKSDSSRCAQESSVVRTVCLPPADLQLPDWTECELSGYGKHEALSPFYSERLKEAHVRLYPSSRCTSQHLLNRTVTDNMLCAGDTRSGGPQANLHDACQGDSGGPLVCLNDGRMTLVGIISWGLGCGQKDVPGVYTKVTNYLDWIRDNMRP
T3 sequence (P00747 97-580 limits assumed): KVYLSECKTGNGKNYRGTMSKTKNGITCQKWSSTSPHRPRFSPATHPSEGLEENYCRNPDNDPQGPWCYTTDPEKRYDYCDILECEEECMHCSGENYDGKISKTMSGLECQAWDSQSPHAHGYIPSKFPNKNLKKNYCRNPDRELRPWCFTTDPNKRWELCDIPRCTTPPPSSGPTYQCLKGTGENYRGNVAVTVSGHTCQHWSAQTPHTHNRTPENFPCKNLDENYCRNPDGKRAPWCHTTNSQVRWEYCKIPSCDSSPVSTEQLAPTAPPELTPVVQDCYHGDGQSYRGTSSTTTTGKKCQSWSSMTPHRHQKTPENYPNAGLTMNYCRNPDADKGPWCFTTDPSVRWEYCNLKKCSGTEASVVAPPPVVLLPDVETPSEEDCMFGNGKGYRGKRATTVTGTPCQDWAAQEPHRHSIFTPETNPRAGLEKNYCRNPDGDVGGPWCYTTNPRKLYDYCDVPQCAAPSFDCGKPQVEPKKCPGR
T3 sequence (P00747 581-810 limits assumed): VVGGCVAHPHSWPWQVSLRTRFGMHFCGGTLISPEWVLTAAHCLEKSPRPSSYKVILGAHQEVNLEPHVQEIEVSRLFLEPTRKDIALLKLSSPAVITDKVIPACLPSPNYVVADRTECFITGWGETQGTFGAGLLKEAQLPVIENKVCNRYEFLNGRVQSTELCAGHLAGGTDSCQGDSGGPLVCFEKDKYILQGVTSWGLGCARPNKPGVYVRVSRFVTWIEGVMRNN
T1 sequence (P00747 20-810 limits assumed): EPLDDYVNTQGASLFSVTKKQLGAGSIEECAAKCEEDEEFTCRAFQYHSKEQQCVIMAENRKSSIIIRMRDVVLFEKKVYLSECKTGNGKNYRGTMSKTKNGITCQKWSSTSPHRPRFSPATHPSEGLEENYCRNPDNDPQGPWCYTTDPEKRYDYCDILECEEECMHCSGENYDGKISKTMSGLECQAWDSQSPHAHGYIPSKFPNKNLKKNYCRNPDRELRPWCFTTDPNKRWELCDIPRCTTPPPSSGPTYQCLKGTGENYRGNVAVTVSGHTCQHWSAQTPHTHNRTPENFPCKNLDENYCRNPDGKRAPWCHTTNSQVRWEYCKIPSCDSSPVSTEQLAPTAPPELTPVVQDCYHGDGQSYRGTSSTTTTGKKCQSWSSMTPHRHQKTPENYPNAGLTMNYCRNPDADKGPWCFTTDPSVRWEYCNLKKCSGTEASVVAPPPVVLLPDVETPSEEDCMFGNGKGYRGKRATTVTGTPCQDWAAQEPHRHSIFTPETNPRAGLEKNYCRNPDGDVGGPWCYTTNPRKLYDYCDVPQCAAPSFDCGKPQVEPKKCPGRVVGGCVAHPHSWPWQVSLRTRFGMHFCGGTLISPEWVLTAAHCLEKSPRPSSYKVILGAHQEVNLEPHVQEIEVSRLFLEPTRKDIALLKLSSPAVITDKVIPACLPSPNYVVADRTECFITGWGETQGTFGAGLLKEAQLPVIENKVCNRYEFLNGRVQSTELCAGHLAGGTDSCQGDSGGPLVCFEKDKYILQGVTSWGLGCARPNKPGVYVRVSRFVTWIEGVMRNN

Row | Structure (SMILES) | effect on clot formation [1] | concentration at which compound increased tPA's activity by 50% [2] [µM] | percentage of tPA's activity ([3]; 0.5 mM) [%] | percentage of tPA's activity ([3]; 1 mM) [%] | percentage of tPA's activity ([3]; 5 mM) [%] | percentage of tPA's activity ([3]; 10 mM) [%] | percentage of tPA's activity ([3]; 15 mM) [%] | activity on tPA's active site [3] | effective dosage (concentration preventing complete clot degradation after 24 h) [4] [µM] | inhibition at 500 µM [7, 9] [%] | inhibition at 5000 µM [7, 9] [%] | inhibition at 10000 µM [7, 9] [%] | inhibition at 15000 µM [7, 9] [%] | inhibition at 20000 µM [7, 9] [%] | inhibition at 30000 µM [7, 9] [%] | increase of IC50 of plasmin's catalytic domain compared to IC50 in plasma clot lysis assay [7] [fold] | other results
1 | NC[C@H]1CC[C@H](C(=O)O)CC1 [TXA, tranexamic acid, reference compound] | do not have any effect | 283.01 | 92.08 | 89.90 | 87.18 | 87.33 | 84.84 | no activity | 60 | 2.61 | 12.3 | 22.4 | 28 | 29.1 | 53.1 | 1000 | increased incidence of postoperative seizures [5]: 7 fold; cerebrospinal fluid concentration as share of plasma concentration [6]: approximately 10%; inhibition at 50000 µM ([7]; 50 mM, read-out: percentage of plasmin's inhibition): 59.2%
2 | O=c1[nH]c(-c2cn(C3CCNCC3)nn2)no1 [compound 1] | do not have any effect | 4.67 | 96.53 | 94.21 | 96.95 | 91.20 | 101.89 | no activity | 10 | 0.56 | 4.3 | 7.36 | 11.6 | 48 | 76.6 | 1000 | potency relative to TXA in catalyzing plasminogen's activation by tPA ([2]; from concentration enhancing tPA's activity by 50%): more than 50 times; improvement in antifibrinolytic activity over TXA (D-dimer quantification) ([8]; whole blood): more than 2 fold; D-dimer release lower than for compound 5 ([8]; timepoint 24 h): around 35%; IC50 ([7]; inhibition of plasmin's cleavage of a synthetic substrate by 50%): 20.6 ± 0.78 mM
